The text below walks through data of US10004732B2 (Novartis AG, priority 2014, dated 2018).

For orientation: IC50 means the concentration needed to halve the response being measured.

Where only a bound is given, the exact number is not on record here.

Data set [1] addresses T1, PI 3-kinase gamma (Homo sapiens, UniProt P48736). Description: Cellular U937 AKT assay K1 (MSD). The following applies: U937 cells, K1 format; read-out: Assay K1 PI3Kγ IC50. It counts as cell-based.
In another data set the target is PI 4-kinase beta (Homo sapiens, UniProt Q9UBF8). In words: Kinase Glo Luminescent Kinase Assay (Kglo), assay D. It is filed as biochemical. Particulars: read-out: Assay D PI4Kβ IC50. Background: In Kinase-Glo more light means more ATP remaining.
Data set [2] addresses T1, PI 3-kinase gamma. Description: TR-FRET Adapta assay, assay E. It is filed as biochemical. Particulars: read-out: Assay E PI3Kγ IC50.
Data set [3] has as its system IL-8-induced neutrophil shape change in human whole blood. In words: Whole blood neutrophil shape change assay (L). It counts as cell-based. Particulars: Homo sapiens, Neutrophil, IL-8, human whole blood, read-out: Assay L WBSC IC50.
Data set [4] concerns the target T2, PI 3-kinase alpha (Homo sapiens, UniProt P42336). Description: Cellular assay H1, p-Akt (S473) in Rat-1 cells, Surefire format. It is filed as cell-based. The following applies: non-asterisked data: version H1 (Surefire format), Rat-1 cells; read-out: Assay H PI3Kα IC50.
In data set [5] the target is T3, PI 3-kinase delta (Homo sapiens, UniProt O00329). In words: TR-FRET Adapta assay, assay F. The following applies: read-out: Assay F PI3Kδ IC50. Background: TR-FRET usually uses a lanthanide donor and a delayed reading to cut background.
Target sequence in this assay (O00329 whole entry): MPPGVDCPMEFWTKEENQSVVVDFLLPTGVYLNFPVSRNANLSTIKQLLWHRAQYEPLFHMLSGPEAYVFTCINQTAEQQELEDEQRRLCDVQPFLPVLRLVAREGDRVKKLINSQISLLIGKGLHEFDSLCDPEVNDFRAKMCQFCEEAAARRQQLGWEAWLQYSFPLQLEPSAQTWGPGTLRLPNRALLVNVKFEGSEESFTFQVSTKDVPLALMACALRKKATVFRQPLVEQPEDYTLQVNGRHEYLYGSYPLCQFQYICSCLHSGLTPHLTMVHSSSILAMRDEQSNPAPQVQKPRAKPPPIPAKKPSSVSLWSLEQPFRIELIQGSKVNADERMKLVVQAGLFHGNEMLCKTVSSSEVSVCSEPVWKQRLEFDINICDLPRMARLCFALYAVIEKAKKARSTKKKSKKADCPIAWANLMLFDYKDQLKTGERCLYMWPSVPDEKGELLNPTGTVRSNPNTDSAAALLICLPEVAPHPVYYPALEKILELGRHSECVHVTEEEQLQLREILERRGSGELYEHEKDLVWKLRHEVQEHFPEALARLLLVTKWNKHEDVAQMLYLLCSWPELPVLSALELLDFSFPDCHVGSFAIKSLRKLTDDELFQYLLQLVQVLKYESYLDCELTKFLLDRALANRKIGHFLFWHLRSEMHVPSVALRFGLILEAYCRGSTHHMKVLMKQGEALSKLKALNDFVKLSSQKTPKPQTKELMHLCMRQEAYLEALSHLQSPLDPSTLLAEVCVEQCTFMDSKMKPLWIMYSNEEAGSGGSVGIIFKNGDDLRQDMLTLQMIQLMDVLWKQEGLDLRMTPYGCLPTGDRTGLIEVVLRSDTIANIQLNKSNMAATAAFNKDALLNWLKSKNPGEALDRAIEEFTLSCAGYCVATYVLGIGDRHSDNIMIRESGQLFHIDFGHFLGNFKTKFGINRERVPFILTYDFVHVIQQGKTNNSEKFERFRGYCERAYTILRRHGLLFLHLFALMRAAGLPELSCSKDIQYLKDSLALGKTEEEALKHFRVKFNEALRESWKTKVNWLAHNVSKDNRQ
Target sequence in this assay (P27986 461-568 partner): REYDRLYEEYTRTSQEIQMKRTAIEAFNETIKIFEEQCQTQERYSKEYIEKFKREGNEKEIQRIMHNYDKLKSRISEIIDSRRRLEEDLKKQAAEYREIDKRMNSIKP
The target in data set [6] is T2, PI 3-kinase alpha. Description: Kinase Glo Luminescent Kinase Assay (Kglo), assay A. It is filed as biochemical. Particulars: read-out: Assay A PI3Kα IC50.
The next data set concerns the target Vps34 (Homo sapiens, UniProt Q8NEB9). In words: Kinase Glo Luminescent Kinase Assay (Kglo), assay C. The following applies: read-out: Assay C VPS34 IC50. It is filed as biochemical.
A short description of data set [7]: Microsomal clearance assay (M). Particulars: intrinsic clearance in rat liver microsomes. On the technique in general: Liver microsomes are vesicles of endoplasmic reticulum, rich in cytochrome P450 enzymes.
Description: The experiments were performed in 96-well glass plates at 37° C. on an automated Tecan EVO platform. Test compounds at a concentration of 10 mM in pure DMSO were diluted 1:1000 in water to 10 μM. […] Reactions were initiated by the addition of 150 μL of a cofactor solution containing 2 mM NADPH.
Data set [8] concerns the target T3, PI 3-kinase delta. In words: Cellular assay J1, p-Akt (S473) in Rat-1 cells, Surefire format. It counts as cell-based. The following applies: non-asterisked data: version J1 (Surefire format), Rat-1 cells; read-out: Assay J PI3Kδ IC50.
Target sequence in this assay (O00329 whole entry): as the sequence (O00329 whole entry) above
Target sequence in this assay (Q63787 whole entry partner): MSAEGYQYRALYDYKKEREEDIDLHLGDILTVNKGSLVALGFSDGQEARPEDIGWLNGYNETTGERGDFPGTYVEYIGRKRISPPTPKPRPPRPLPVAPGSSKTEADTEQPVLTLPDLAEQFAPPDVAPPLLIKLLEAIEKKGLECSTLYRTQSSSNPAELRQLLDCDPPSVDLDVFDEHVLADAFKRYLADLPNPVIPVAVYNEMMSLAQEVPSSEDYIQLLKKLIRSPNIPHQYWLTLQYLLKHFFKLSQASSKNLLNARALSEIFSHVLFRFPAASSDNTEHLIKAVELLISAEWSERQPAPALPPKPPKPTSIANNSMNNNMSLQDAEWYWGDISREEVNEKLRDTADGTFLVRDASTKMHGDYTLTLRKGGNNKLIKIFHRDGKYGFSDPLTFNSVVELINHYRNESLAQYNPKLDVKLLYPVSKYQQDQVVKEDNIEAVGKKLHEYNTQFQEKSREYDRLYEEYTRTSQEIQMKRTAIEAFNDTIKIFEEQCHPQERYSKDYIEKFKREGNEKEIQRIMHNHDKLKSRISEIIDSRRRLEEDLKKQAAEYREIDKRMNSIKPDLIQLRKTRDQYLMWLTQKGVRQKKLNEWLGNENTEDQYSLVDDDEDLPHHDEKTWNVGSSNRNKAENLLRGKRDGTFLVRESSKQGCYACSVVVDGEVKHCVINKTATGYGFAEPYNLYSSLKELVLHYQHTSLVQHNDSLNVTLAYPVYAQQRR
Data set [9] has as its target T4, PI 3-kinase beta (Homo sapiens, UniProt P42338). In words: Cellular assay I1, p-Akt (S473) in Rat-1 cells, Surefire format. Particulars: non-asterisked data: version I1 (Surefire format), Rat-1 cells; read-out: Assay I PI3Kβ IC50. It counts as cell-based.
The next data set deals with mTOR (Homo sapiens, UniProt P42345). In words: Lanthascreen kinase binding assay, assay G. Particulars: read-out: Assay G mTOR IC50.
The target of data set [10] is T4, PI 3-kinase beta. In words: Kinase Glo Luminescent Kinase Assay (Kglo), assay B. It is filed as biochemical. The following applies: read-out: Assay B PI3Kβ IC50.
Description: Kinase Glo Luminescent Kinase Assay (Kglo) for Pb 3-Kinase Alpha (A), Pb 3-Kinase Beta (B), Vps34 (C), Pb 4-Kinase Beta (D)
The Kinase Glo Luminescent Kinase Assay (Promega, Madison/Wis., USA) is a homogeneous HTS method of measuring kinase activity by quantifying the amount of ATP remaining in solution following a kinase reaction.
L-α-phosphatidylinositol (PI), provided as 10 mg/ml solution in methanol, was transferred into a glass tube and dried under a nitrogen beam. It was then resuspended in 3% OctylGlucoside (1-0-n-octyl-beta-D-glucopyranoside) by vortexing and stored at 4° C. 5 μL of a mix of PI/OctylGlucoside with the PI 3-kinase alpha and PI 3-kinase beta subtypes, or Vps34 or PI 4-kinase beta were added. Kinase reactions were started by the addition of 5 μl of an ATP-mix containing in a final volume 10 μL 10 mM TRIS-HCl pH 7.5, 3 mM MgCl2, 50 mM NaCl, 0.05% CHAPS, 1 mM DTT and 1 μM ATP at room temperature.
All fits were performed with the program XLfit4 (ID Business Solutions, Guildford, UK).

Sequence of PI 4-kinase beta (Q9UBF8 whole entry): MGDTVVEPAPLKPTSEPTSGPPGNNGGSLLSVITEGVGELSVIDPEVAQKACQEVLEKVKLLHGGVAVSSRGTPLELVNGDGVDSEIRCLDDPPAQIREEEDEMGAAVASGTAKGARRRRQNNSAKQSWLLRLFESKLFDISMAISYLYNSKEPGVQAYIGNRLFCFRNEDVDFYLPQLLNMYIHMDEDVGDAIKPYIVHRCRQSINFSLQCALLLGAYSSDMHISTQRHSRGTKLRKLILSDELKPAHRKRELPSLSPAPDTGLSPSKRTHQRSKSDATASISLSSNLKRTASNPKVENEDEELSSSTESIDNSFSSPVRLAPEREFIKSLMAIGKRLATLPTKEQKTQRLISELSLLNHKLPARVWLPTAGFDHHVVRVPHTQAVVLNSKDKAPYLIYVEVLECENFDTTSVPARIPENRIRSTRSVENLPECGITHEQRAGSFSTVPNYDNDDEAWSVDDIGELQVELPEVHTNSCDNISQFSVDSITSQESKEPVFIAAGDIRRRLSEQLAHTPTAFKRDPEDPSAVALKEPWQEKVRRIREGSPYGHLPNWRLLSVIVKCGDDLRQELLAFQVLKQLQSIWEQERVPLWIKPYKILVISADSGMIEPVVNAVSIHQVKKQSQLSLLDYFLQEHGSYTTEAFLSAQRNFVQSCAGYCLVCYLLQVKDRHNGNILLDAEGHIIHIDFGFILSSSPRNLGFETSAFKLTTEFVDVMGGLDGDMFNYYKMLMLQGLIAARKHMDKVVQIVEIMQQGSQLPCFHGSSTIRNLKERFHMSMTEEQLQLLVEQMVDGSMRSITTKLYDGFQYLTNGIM
Sequence of Vps34 (Q8NEB9 whole entry, species assumed): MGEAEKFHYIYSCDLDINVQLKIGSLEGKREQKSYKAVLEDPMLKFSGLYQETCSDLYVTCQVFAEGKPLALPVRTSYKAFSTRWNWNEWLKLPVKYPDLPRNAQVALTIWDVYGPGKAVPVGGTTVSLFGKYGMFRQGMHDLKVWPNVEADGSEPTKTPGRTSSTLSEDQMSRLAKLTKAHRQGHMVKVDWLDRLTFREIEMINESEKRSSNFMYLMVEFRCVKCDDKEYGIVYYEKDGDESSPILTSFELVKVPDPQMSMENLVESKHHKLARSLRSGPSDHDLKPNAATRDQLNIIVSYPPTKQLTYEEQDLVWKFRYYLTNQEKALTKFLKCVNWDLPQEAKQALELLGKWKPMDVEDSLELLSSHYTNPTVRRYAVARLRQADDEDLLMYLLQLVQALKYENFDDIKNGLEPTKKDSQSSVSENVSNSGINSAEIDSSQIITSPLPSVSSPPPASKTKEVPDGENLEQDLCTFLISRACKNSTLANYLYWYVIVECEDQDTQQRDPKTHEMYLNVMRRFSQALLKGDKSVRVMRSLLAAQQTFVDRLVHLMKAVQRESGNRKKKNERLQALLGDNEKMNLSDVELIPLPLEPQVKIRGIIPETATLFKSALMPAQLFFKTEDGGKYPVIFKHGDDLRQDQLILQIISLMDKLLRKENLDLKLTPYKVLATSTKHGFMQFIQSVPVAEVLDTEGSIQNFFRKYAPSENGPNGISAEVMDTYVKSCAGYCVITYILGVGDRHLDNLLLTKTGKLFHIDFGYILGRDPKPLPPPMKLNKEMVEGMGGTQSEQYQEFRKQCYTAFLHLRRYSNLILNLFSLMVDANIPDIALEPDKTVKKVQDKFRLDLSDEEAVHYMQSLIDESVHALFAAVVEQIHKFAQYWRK
T1 sequence (P48736 whole entry): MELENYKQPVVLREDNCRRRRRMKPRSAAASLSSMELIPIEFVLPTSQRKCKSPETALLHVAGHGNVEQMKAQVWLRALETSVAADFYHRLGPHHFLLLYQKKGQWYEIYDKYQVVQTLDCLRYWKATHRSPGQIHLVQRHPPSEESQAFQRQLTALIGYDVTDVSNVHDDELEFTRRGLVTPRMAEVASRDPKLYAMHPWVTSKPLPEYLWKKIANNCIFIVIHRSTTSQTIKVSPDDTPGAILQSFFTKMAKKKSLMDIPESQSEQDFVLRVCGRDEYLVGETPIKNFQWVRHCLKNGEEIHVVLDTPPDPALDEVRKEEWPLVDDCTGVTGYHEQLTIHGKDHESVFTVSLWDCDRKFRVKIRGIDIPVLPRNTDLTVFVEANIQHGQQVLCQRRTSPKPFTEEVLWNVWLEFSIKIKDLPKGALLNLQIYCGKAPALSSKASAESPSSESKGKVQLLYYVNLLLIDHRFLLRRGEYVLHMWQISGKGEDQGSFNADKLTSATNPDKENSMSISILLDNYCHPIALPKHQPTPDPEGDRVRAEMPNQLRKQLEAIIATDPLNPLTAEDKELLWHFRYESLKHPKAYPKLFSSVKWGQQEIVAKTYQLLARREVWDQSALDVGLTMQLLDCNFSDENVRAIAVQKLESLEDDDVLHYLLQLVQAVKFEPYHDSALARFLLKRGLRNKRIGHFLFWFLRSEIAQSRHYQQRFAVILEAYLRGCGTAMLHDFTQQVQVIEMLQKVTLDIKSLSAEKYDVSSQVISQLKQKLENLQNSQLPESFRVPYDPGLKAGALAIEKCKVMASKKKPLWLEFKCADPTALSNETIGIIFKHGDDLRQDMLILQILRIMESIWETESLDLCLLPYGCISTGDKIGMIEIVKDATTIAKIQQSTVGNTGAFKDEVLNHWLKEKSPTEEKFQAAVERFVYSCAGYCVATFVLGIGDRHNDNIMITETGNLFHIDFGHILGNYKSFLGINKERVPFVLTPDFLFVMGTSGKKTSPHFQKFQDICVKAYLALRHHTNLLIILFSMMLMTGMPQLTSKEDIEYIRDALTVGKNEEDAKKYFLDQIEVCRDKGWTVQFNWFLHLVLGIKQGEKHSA
Description for mTOR: Lanthascreen™ Kinase Binding Assay for mTOR (G)
Binding of an inhibitor to the kinase competes for binding with the tracer, resulting in a loss of FRET.
50 nL of compound dilutions were dispensed onto white 384-well small volume polystyrene plate.

Turning to `Cc1nnc(-c2nc(-c3cc(S(=O)(=O)N[C@H]4CC[C@H](O)CC4)ccc3C)cnc2N)o1` [Example 1, Trans-3-[5-Amino-6-(5-methyl-[1,3,4]oxadiazol-2-yl)-pyrazin-2-yl]-N-(4-hydroxy-cyclohexyl)-4-methyl-benzenesulfonamide], the IC50 is 504 nM on PI 3-kinase gamma [1]; above 9100 nM at PI 4-kinase beta; 15 nM on PI 3-kinase gamma [2]; 803 nM in data set [3]; 9360 nM at PI 3-kinase alpha [4]; 1010 nM at PI 3-kinase delta [5]. Also, the IC50 on PI 3-kinase alpha [6] was 1300 nM; on Vps34, above 9100 nM; on PI 3-kinase delta [8] it was 7420 nM; on PI 3-kinase beta [9], above 10000 nM. Further, the “Assay M RLM CI(int)” value in data set [7] was below 3.4 µL/min/mg.

Turning to `Cc1noc(-c2nc(-c3cc(S(=O)(=O)N[C@H]4CC[C@H](O)CC4)ccc3C)cnc2N)n1` [Example 2, Trans-3-[5-Amino-6-(3-methyl-[1,2,4]oxadiazol-5-yl)-pyrazin-2-yl]-N-(4-hydroxy-cyclohexyl)-4-methyl-benzenesulfonamide], the IC50 on PI 3-kinase gamma [1] was 147 nM; on PI 4-kinase beta, above 9100 nM; at mTOR, above 9100 nM; on PI 3-kinase gamma [2], 3 nM; in data set [3], 687 nM; on PI 3-kinase alpha [4], 3180 nM. Also, the half-maximal inhibitory concentration (IC50) on PI 3-kinase delta [5] is 390 nM; at PI 3-kinase alpha [6], 820 nM; at Vps34, above 9100 nM; at PI 3-kinase delta [8], 1070 nM; at PI 3-kinase beta [9], above 10000 nM. In data set [7], the “Assay M RLM CI(int)” value was 25 µL/min/mg.

As for `Cc1cc(-c2nc(-c3cc(S(=O)(=O)N[C@H]4CC[C@H](O)CC4)ccc3C)cnc2N)on1` [Example 4, Trans-3-[5-Amino-6-(3-methyl-isoxazol-5-yl)-pyrazin-2-yl]-N-(4-hydroxy-cyclohexyl)-4-methyl-benzenesulfonamide], the IC50 at PI 3-kinase gamma [1] turned out to be 38 nM; on PI 4-kinase beta, 3700 nM; on mTOR, 6510 nM; at PI 3-kinase gamma [2] it was 26 nM; in data set [3], 675 nM; at PI 3-kinase alpha [4], 2550 nM. The IC50 on PI 3-kinase delta [5] was 300 nM; at PI 3-kinase alpha [6], 510 nM; at Vps34, above 9100 nM; at PI 3-kinase beta [10], 3240 nM; on PI 3-kinase delta [8], 910 nM; on PI 3-kinase beta [9], 4460 nM. The “Assay M RLM CI(int)” value in [7] was found to be 27 µL/min/mg.

Take `Cc1ncc(-c2nc(-c3cc(S(=O)(=O)NCC(C)(C)CO)ccc3C)cnc2N)s1` [Example 8, 3-[5-Amino-6-(2-methyl-thiazol-5-yl)-pyrazin-2-yl]-N-(3-hydroxy-2,2-dimethyl-propyl)-4-methyl-benzenesulfonamide]: the IC50 at PI 3-kinase gamma [1] is 21 nM; on PI 4-kinase beta, 1960 nM; at mTOR, 270 nM; on PI 3-kinase gamma [2] it was below 3 nM; in data set [3], 169 nM; at PI 3-kinase alpha [4], 750 nM. Further, the IC50 worked out at 20 nM on PI 3-kinase delta [5]; 40 nM on PI 3-kinase alpha [6]; 410 nM at Vps34; 1520 nM on PI 3-kinase beta [10]; 370 nM on PI 3-kinase delta [8]; 6030 nM at PI 3-kinase beta [9]. In addition, the “Assay M RLM CI(int)” value in data set [7] came to 50 µL/min/mg.

As to `Cc1ccc(S(=O)(=O)N[C@H]2CC[C@H](O)CC2)cc1-c1cnc(N)c(-c2ccncc2)n1` [Example 11, Trans-3-(5-Amino-6-(pyridin-4-yl)pyrazin-2-yl)-N-(4-hydroxycyclohexyl)-4-methylbenzenesulfonamide], the IC50 at PI 3-kinase gamma [1] is 57 nM; on PI 4-kinase beta, 3580 nM; at mTOR, 5890 nM; at PI 3-kinase gamma [2] it was 10 nM; in data set [3] it was 157 nM; at PI 3-kinase alpha [4], 2570 nM. Also, the IC50 on PI 3-kinase delta [5] was 130 nM; on PI 3-kinase alpha [6], 140 nM; at Vps34, above 9100 nM; on PI 3-kinase beta [10] it was 2620 nM; at PI 3-kinase delta [8], 3520 nM; at PI 3-kinase beta [9] it was 6910 nM. For the same compound, in data set [7], the “Assay M RLM CI(int)” value stood at 78 µL/min/mg.

With `Cc1ccc(S(=O)(=O)N[C@H]2CC[C@H](O)CC2)cc1-c1cnc(N)c(-n2cncn2)n1` [Example 15, Trans-3-(5-Amino-6-(1H-1,2,4-triazol-1-yl)pyrazin-2-yl)-N-(4-hydroxycyclohexyl)-4-methylbenzenesulfonamide], the IC50 was 61 nM at PI 3-kinase gamma [1]; 5680 nM on PI 4-kinase beta; above 9100 nM at mTOR; 18 nM at PI 3-kinase gamma [2]; 166 nM in data set [3]; 1930 nM at PI 3-kinase alpha [4]. For the same compound, the IC50 is 150 nM at PI 3-kinase delta [5]; 160 nM at PI 3-kinase alpha [6]; above 9100 nM on Vps34; 1930 nM on PI 3-kinase beta [10]; 1450 nM at PI 3-kinase delta [8]; 2010 nM on PI 3-kinase beta [9]. Further, the “Assay M RLM CI(int)” value in [7] worked out at 24 µL/min/mg.

In the case of `Cc1ccc(S(=O)(=O)NC[C@H]2CCOC2)cc1-c1cnc(N)c(-c2cn(C)nc2C)n1` [Example 16, 3-[5-Amino-6-(1,3-dimethyl-1H-pyrazol-4-yl)-pyrazin-2-yl]-4-methyl-N—[(R)-1-(tetrahydrofuran-3-yl)methyl]-benzenesulfonamide], the IC50 on PI 3-kinase gamma [1] stood at 43 nM; on PI 4-kinase beta, 6400 nM; on mTOR it was 5300 nM; on PI 3-kinase gamma [2], 9 nM; in data set [3], 154 nM; at PI 3-kinase alpha [4], 900 nM. Besides, the IC50 on PI 3-kinase delta [5] is 250 nM; at PI 3-kinase alpha [6], 140 nM; on Vps34, above 10000 nM; on PI 3-kinase beta [10] it was 1020 nM; on PI 3-kinase delta [8] it was 620 nM; on PI 3-kinase beta [9], 1860 nM. Moreover, in data set [7], the “Assay M RLM CI(int)” value was found to be 47 µL/min/mg.

As for `Cc1ccc(S(=O)(=O)NCC2(C)COC2)cc1-c1cnc(N)c(-c2cn(C)nc2C)n1` [Example 17, 3-[5-Amino-6-(1,3-dimethyl-1H-pyrazol-4-yl)-pyrazin-2-yl]-4-methyl-N-(3-methyl-oxetan-3-ylmethyl)-benzenesulfonamide], the IC50 on PI 3-kinase gamma [1] amounted to 51 nM; at PI 4-kinase beta it was 8300 nM; on mTOR, 6100 nM; on PI 3-kinase gamma [2], 10 nM; in data set [3], 166 nM; at PI 3-kinase alpha [4] it was 2800 nM. Also, the IC50 is 590 nM on PI 3-kinase delta [5]; 220 nM on PI 3-kinase alpha [6]; above 10000 nM on Vps34; 900 nM on PI 3-kinase beta [10]; 1920 nM on PI 3-kinase delta [8]; 8250 nM at PI 3-kinase beta [9]. Further, the “Assay M RLM CI(int)” value in data set [7] stood at 34 µL/min/mg.

Turning to `Cc1ccc(S(=O)(=O)NOC2CCOC2)cc1-c1cnc(N)c(-n2cncn2)n1` (centres unmarked) [Example 112.5, 3-(5-Amino-6-(1H-1,2,4-triazol-1-yl)pyrazin-2-yl)-4-methyl-N-((tetrahydrofuran-3-yl)oxy)benzenesulfonamide], the IC50 at PI 3-kinase gamma [1] is 36 nM; at PI 4-kinase beta it was 3000 nM; at mTOR, 1830 nM; in [3] it was 970 nM; on PI 3-kinase alpha [4], 130 nM; at PI 3-kinase delta [5] it was 530 nM. The IC50 on PI 3-kinase alpha [6] was 120 nM; at Vps34 it was above 10000 nM; on PI 3-kinase beta [10] it was 2250 nM; on PI 3-kinase delta [8], 830 nM; on PI 3-kinase beta [9], above 10000 nM. Further, the “Assay M RLM CI(int)” value in data set [7] was 40 µL/min/mg.

Turning to `CCc1noc(-c2nc(-c3cc(S(=O)(=O)NCCC(C)(C)O)ccc3C)cnc2N)n1` [Example 136, 3-(5-Amino-6-(3-ethyl-1,2,4-oxadiazol-5-yl)pyrazin-2-yl)-N-(3-hydroxy-3-methylbutyl)-4-methylbenzenesulfonamide], the IC50 is 124 nM at PI 3-kinase gamma [1]; above 9100 nM on PI 4-kinase beta; above 9100 nM at mTOR; 12 nM at PI 3-kinase gamma [2]; 1300 nM in [3]; 990 nM at PI 3-kinase alpha [4]. In addition, the IC50 on PI 3-kinase delta [5] was 130 nM; on PI 3-kinase alpha [6] it was 440 nM; at Vps34, above 9100 nM; at PI 3-kinase beta [10], above 9100 nM; on PI 3-kinase delta [8], 1120 nM; on PI 3-kinase beta [9], above 10000 nM.

`CCc1noc(-c2nc(-c3cc(S(=O)(=O)N[C@H]4CC[C@H](O)CC4)ccc3C)cnc2N)n1` [Example 139, Trans-3-[5-Amino-6-(3-ethyl-[1,2,4]oxadiazol-5-yl)-pyrazin-2-yl]-N-(4-hydroxy-cyclohexyl)-4-methyl-benzene sulfonamide]: the IC50 at PI 3-kinase gamma [1] was 102 nM; on PI 4-kinase beta, above 9100 nM; on mTOR, 8300 nM; at PI 3-kinase gamma [2], 16 nM; in data set [3] it was 565 nM; at PI 3-kinase alpha [4], 1080 nM. Besides, the IC50 was 160 nM at PI 3-kinase delta [5]; 540 nM at PI 3-kinase alpha [6]; above 9100 nM at Vps34; 8390 nM at PI 3-kinase beta [10]; 970 nM at PI 3-kinase delta [8]; 7960 nM at PI 3-kinase beta [9].
